The source of these data is patent publication US20250145566A1, “PHENETHYLAMINE DERIVATIVES, COMPOSITIONS, AND METHODS OF USE” (Cybin IRL Limited, priority 2022, published 2025).

The target of one data set is T1, 5-HT transporter (h) (Homo sapiens, UniProt P31645).
T1 construct: expressed in transfected cells; host or cells: CHO cells
The experiment in a line: 5-HT transporter (h) binding, [3H]imipramine. The following applies: for selectivity for binding SERT over DAT and NET, in words: affinity screen at 10 μM.

The nature of data set [1]: Rat liver microsomes (RLM) in vitro metabolism. The data set is classed as in vitro ADME. The following applies: Sprague-Dawley, pH 7.4; rat liver microsomes, test compound 1 μM; * = apparent NADPH independent reaction; read-out: RLM t1/2. The method, then:
(§1) Rat Liver Microsomes (RLM). Male Sprague-Dawley rat liver microsomes were purchased from XenoTech. The reaction mixture, minus NADPH, was prepared as described in Table 10. The test compound was added into the reaction mixture at a final concentration of 1 μM. The control compound, testosterone, was run simultaneously with the test compound in a separate reaction. The reaction mixture (without cofactor) was equilibrated in a shaking water bath at 37° C. for 5 minutes. The reaction was initiated by the addition of the cofactor, and the mixture was incubated in a shaking water bath at 37° C. Aliquots (150 μL) were withdrawn at 0, 5, 10, 20, 30, 60, and for some assays at 120 minutes. Test compound and testosterone samples were immediately combined with 150 μL of ice-cold acetonitrile (ACN) containing 0.1% formic acid and internal standard to terminate the reaction. The samples were then mixed and centrifuged to precipitate proteins. All samples were assayed by LC-MS/MS using electrospray ionization. The peak area response ratio (PARR) of analyte to internal standard at each time point was compared to the PARR at time 0 to determine the percent remaining at each time point. Half-lives were calculated using GraphPad software, fitting to a single-phase exponential decay equation.
(§2) In a different series of reactions using RLM, a 10 mM stock solution of the test compound was prepared in DMSO. From this stock solution, an intermediate stock solution of 1 mM was prepared by diluting the compound in DMSO and from this intermediate stock solution, a working solution of 0.30 mM was prepared by diluting the compound in ACN:Water (50:50) as a cocktail of two compounds (i.e., 30 μL the non-deuterated and the deuterated compound in 40 μL diluent in 100 μL total volume). Following this, a master mix of rat liver microsomes (final concentration 0.5 mg/ml, Xenotech Cat #R1000; Lot #1610290) and 0.1 M potassium phosphate buffer was prepared and pre-incubated for 5 min at 37° C. The test compound mixture was then added to achieve a final test article concentration of 1 μM (for each analog if co-dosed; 0.2% DMSO); verapamil was used as a positive control. Subsequently, 10 mM NADPH prepared in 0.1 M potassium phosphate buffer was added (final concentration 1 mM) to initiate the reaction and samples were incubated at 37° C. for the desired time points (0, 5, 15, 30, 45, 60 min). At each time point, 40 μL of the samples were withdrawn and reactions were stopped using 200 μL chilled ACN containing 0.1% formic acid and internal standard carbamazepine (10 ng/mL). The samples were centrifuged, and the supernatant was analyzed by LC-MS/MS. The percent compound remaining at each time point was calculated with respect to that of the 0 min sample. The data were then analyzed to calculate half-life. Blank samples were prepared using DMSO (without the test compound).
(Microsomes from liver hold many membrane-bound enzymes, among them those of drug oxidation.)

The subject of a further data set is Rat Liver Microsomes. The experiment in a line: Rat liver microsomes (RLM) in vitro metabolism. The following applies: result in words. The data set is classed as in vitro ADME. The method, then:
as §1, §2

In another data set the target is T2, 5-HT2B (h) (Homo sapiens, UniProt P41595).
T2 construct: expressed in transfected cells; host or cells: CHO cells
T2 sequence (P41595 whole entry): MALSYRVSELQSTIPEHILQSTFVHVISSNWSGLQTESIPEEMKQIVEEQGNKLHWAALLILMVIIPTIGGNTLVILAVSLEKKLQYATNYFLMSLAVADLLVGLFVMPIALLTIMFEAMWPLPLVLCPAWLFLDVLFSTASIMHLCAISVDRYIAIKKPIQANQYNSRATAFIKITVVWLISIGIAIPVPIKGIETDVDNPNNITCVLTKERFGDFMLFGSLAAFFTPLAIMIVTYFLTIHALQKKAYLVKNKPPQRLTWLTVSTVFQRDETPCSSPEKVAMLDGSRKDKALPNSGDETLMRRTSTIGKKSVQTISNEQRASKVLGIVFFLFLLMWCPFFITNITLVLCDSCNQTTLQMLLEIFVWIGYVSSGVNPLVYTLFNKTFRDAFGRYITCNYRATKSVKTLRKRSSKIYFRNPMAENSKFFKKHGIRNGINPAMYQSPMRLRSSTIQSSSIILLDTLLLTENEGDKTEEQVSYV
The experiment in a line: 5-HT2B (h) agonist effect, IP1 HTRF functional assay. It is filed as cell-based. The following applies: for agonist efficacy at 5-HT2B, in words: EMAX relative to 5-HT.

The next data set addresses Dopamine transporter (Homo sapiens, UniProt Q01959). The experiment in a line: Dopamine transporter uptake (h). The data set is classed as cell-based.
The next data set concerns the target T3, 5-HT2A (h) (Homo sapiens, UniProt P28223).
T3 construct: expressed in transfected cells; host or cells: HEK-293 cells
The experiment in a line: 5-HT2A (h) agonist effect, IP1 HTRF functional assay. The data set is classed as cell-based. The following applies: for agonist efficacy at 5-HT2A, in words: EMAX relative to 5-HT. Background: In TR-FRET formats the signal depends on donor and acceptor labels being close together.

The target in another data set is T4, MAO-B (Homo sapiens, UniProt P27338).
T4 construct: purchased Corning 456284
T4 sequence (P27338 1-520): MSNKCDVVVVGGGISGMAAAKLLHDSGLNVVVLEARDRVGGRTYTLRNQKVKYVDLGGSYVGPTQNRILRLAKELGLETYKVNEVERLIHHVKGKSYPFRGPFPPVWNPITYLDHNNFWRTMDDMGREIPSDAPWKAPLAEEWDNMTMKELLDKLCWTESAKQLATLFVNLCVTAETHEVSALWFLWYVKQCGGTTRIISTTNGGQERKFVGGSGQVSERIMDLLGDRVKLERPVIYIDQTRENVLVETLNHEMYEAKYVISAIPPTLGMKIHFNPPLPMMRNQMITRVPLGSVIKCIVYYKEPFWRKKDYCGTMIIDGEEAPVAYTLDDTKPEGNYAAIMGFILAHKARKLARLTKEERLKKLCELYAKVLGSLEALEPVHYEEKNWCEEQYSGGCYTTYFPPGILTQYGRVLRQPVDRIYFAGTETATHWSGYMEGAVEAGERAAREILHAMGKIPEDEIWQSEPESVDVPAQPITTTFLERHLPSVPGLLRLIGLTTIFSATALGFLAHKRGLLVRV
The experiment in a line: human MAO-B in vitro metabolism. The data set is classed as in vitro ADME. The following applies: human MAO-B enzyme (Corning), test compound 1 μM, read-out: MAO-B t1/2. The procedure: In a different series of reactions using human MAO-A and MAO-B, a 10 mM stock solution of the test compound was prepared in DMSO. From this stock solution, an intermediate stock solution of 1 mM was prepared by diluting the compound in DMSO and from this intermediate stock solution, a working solution of 0.30 mM was prepared by diluting the compound in ACN:Water (50:50) as cocktail of 2 compounds (30 μL each compound in 40 μL diluent for 100 μL). Following this, a master mix of 0.1 M potassium phosphate buffer and test compound mixture i.e., the non-deuterated and the deuterated analog, were prepared to achieve final drug concentration of 1 μM (0.2% DMSO) for the required number of reactions. The aforementioned master mix was pre-incubated at 37° C. for 5 min. To this master mix, MAO-A (final protein conc. 0.1 mg/mL; Corning Cat #456283; Lot #1173003) or MAO-B (final protein conc. 0.1 mg/mL; Corning Cat #456284; Lot #0318001) was added to initiate the reaction. The samples were then incubated at 37° C. for the desired time points. At each time point (0, 5, 15, 30, 45, 60), 40 μL of the samples were withdrawn and reactions were stopped using 200 μL chilled ACN containing 0.1% formic acid and internal standard Carbamazepine (10 ng/mL). The samples were centrifuged, and the supernatant was analyzed by LC-MS/MS. The percent compound remaining at each time point was calculated with respect to that of the 0 min sample. The data were then analyzed to calculate half-life and intrinsic clearance (CLint). Blank samples were prepared using DMSO (without the test compound).

“Also recorded” adds a separate entry of the source.

T3 sequence (P28223 whole entry): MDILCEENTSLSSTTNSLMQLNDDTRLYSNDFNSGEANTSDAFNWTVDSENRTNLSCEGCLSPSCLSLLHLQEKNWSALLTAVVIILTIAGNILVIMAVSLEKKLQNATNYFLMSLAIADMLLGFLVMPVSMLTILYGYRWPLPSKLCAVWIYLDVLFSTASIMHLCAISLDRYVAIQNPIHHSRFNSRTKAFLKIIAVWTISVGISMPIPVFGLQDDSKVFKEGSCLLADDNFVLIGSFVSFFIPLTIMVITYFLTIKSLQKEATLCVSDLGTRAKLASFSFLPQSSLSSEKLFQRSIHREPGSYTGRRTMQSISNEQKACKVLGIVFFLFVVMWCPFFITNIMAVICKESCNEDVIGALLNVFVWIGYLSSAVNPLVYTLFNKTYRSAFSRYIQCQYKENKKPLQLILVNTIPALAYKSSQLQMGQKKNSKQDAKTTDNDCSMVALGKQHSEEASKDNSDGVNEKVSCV
T1 sequence (P31645 whole entry): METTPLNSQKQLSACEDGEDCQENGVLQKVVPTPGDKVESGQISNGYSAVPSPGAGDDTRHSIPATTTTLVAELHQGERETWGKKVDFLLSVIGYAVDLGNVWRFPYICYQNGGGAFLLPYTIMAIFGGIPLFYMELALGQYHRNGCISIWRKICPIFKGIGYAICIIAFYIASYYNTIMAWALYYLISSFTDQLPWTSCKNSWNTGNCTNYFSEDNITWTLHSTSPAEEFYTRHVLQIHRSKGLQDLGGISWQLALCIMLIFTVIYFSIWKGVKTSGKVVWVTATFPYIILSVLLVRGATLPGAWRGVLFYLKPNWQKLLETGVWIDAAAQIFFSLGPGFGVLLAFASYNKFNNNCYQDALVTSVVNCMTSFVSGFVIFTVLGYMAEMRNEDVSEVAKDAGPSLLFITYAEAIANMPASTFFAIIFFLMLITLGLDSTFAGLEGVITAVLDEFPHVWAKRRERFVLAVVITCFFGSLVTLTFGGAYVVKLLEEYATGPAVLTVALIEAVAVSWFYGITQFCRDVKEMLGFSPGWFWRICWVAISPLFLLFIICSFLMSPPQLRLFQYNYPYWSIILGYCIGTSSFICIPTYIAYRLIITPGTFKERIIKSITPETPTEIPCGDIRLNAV
Sequence of Dopamine transporter (Q01959 whole entry): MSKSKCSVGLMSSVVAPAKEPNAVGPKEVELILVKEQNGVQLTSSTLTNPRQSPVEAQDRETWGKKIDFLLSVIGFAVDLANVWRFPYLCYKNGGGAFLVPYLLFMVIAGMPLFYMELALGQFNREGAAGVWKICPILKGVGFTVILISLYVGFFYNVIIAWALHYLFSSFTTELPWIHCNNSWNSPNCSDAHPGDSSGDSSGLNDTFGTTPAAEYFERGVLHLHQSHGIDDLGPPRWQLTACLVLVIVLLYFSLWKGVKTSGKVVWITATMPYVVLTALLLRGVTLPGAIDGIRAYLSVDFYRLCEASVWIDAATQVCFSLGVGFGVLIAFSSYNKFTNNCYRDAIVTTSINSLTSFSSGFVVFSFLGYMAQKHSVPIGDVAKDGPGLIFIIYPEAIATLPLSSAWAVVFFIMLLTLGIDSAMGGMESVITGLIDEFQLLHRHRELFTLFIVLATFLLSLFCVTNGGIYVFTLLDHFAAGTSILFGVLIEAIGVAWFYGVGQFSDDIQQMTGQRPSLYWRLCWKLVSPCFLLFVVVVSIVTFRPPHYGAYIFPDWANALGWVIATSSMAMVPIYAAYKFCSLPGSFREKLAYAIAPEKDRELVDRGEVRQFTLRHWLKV

Regarding `NCCc1ccc2c(c1)OCS2` [II-14, 2-(benzo[d][1,3]oxathiol-6-yl)ethan-1-amine], the “selectivity for binding SERT over DAT and NET, in words” value on 5-HT transporter (h) was “substantial selectivity for binding SERT over DAT and NET”. In addition, on 5-HT transporter (h) (at 10 μM), the “Binding SERT (antagonist radioligand), % competition” value is recorded as 54.7% competition. For the same compound, in data set [1], the half-life at 1 µM was less than 5 min. The “disappearance in RLM, NADPH dependence” value with Rat Liver Microsomes is recorded as “NADPH-independent”. At 5-HT2B (h), the EC50 (as a rule, the concentration at which the effect is half-maximal) was less than 0.75 µM. The maximal response (Emax) (commonly the greatest response seen or fitted, relative to the assay's reference) at 10 µM on 5-HT2B (h) (at 10 μM, relative to 5-HT, read-out: Function 5-HT2B EMAX) is 100%. Besides, on 5-HT2B (h) (tested at 1, 3, 10, 100 μM), the “Function 5-HT2B (Gq-IP1, efficacy relative to 5-HT), agonist type” value is on record as “Full agonist -” and the “agonist efficacy at 5-HT2B, in words” value was “nearly full or full agonist; also recorded: full agonists”. Also, the concentration for half-maximal inhibition (IC50) (usually the midpoint of a concentration-inhibition curve) at Dopamine transporter (Function DAT Estimated IC50, blocking reuptake of DA) was approximately 10 µM. The inhibition (usually the relative decrease from the control value, in per cent) at 100 µM at Dopamine transporter (at 100 μM, read-out: Function DAT, inhibition of DAT) was determined as 95%. Also, at Dopamine transporter (tested at 1, 10, 100 μM), the “Function DAT (blocking reuptake of DA), efficacy in words” value is given as “Near full efficacy,” and the “efficacy for blocking DA uptake through DAT, in words” value was “full efficacy”. For the same compound, the EC50 on 5-HT2A (h) amounted to 3 µM. Further, the maximal response (Emax) at 100 µM at 5-HT2A (h) (at 100 μM, relative to 5-HT, read-out: Function 5-HT2A EMAX) was 87.3%. Also, on 5-HT2A (h) (tested at 1, 3, 10, 100 μM), the “Function 5-HT2A (IP-1, efficacy relative to 5-HT), agonist type” value is recorded as “Nearly full agonist -” and the “agonist efficacy at 5-HT2A, in words” value is “nearly full or full agonist; also recorded: full agonists”. The half-life at 1 µM at MAO-B is less than 5 min.
Regarding `CC(N)Cc1ccc2c(c1)OCS2` (stereo not drawn) [II-16, 1-(benzo[d][1,3]oxathiol-6-yl)propan-2-amine], the “selectivity for binding SERT over DAT and NET, in words” value at 5-HT transporter (h) is “substantial selectivity for binding SERT over DAT and NET”. Also, the half-life at 1 µM came to 11.7 min in data set [1] and 857 min at MAO-B. Moreover, the “disappearance in RLM, NADPH dependence” value in the data set on Rat Liver Microsomes was “NADPH-independent”. Besides, on 5-HT2B (h) (tested at 1, 3, 10, 100 μM), the “agonist efficacy at 5-HT2B, in words” value is “nearly full or full agonist; also recorded: full agonists”. Besides, at Dopamine transporter (tested at 1, 10, 100 μM), the “efficacy for blocking DA uptake through DAT, in words” value was “full efficacy”. The “agonist efficacy at 5-HT2A, in words” value on 5-HT2A (h) (tested at 1, 3, 10, 100 μM) is reported as “nearly full or full agonist; also recorded: full agonists”.
